How the values were obtained:
ALK = target: T1, ALK (Homo sapiens, UniProt Q9UM73); experiment: ALK Kinase Assay (ELISA/TRF, PLC-γ substrate); assay type: biochemical; details: ALK kinase inhibition, 1 μM ATP; read-out: ALK Potency
T1 construct: host or cells: baculovirus expression system
Procedure, shortened: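 PLC-γ coat 10 μg/mL in TBS; ALK 30 ng/ml added to start; 37° C, 15 min; Eu-N1 PT66 antibody detection (TRF). IC50: % inhibition vs log10 [cpd], variable-slope sigmoidal fit.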

JAK2 = target: T2, JAK2 (Homo sapiens, UniProt O60674); experiment: Recombinant Human JAK2 Kinase Assay (TRF); assay type: biochemical; details: JAK2 kinase inhibition, 0.2 μM ATP; read-out: JAK2 Potency
T2 construct: host or cells: baculovirus expression system
T2 sequence (O60674 whole entry): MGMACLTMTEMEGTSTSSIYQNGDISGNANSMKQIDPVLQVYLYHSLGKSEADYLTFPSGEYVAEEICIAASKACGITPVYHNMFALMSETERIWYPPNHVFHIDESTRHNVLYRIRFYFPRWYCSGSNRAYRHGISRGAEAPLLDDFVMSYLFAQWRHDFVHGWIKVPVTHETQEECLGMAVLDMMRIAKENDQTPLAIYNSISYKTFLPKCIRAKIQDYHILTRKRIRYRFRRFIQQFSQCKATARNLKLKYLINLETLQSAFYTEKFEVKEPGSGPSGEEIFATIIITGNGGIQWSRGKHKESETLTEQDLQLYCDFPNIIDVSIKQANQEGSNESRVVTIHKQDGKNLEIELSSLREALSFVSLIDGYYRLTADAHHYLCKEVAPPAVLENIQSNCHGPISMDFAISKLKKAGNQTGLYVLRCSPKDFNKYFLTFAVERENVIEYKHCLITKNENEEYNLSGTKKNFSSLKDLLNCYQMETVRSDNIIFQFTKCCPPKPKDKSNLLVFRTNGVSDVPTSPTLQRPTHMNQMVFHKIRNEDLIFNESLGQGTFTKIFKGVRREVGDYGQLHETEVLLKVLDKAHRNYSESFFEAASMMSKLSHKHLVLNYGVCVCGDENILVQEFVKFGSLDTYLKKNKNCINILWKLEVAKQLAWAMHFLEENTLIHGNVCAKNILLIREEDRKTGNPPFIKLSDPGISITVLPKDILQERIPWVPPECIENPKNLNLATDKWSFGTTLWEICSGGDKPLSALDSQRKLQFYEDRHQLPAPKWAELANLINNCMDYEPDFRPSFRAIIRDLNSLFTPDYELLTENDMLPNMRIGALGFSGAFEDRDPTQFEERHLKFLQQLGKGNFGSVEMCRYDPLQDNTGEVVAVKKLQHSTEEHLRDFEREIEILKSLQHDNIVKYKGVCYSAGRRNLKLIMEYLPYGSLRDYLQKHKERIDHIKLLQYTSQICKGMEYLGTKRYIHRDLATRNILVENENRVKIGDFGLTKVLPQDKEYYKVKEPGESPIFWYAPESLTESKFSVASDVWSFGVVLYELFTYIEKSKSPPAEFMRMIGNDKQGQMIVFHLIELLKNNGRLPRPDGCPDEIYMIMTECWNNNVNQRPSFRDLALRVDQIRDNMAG
Procedure, shortened: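 Kinase activity of baculovirus-expressed JAK2 is followed on a surface-immobilised biotinylated peptide, with the reaction run for 20 min at room temperature in buffer containing 0.2 μM ATP and manganese. Phosphorylation is read with Eu-N1 PY100 antibody.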

T1 sequence (Q9UM73 19-1620): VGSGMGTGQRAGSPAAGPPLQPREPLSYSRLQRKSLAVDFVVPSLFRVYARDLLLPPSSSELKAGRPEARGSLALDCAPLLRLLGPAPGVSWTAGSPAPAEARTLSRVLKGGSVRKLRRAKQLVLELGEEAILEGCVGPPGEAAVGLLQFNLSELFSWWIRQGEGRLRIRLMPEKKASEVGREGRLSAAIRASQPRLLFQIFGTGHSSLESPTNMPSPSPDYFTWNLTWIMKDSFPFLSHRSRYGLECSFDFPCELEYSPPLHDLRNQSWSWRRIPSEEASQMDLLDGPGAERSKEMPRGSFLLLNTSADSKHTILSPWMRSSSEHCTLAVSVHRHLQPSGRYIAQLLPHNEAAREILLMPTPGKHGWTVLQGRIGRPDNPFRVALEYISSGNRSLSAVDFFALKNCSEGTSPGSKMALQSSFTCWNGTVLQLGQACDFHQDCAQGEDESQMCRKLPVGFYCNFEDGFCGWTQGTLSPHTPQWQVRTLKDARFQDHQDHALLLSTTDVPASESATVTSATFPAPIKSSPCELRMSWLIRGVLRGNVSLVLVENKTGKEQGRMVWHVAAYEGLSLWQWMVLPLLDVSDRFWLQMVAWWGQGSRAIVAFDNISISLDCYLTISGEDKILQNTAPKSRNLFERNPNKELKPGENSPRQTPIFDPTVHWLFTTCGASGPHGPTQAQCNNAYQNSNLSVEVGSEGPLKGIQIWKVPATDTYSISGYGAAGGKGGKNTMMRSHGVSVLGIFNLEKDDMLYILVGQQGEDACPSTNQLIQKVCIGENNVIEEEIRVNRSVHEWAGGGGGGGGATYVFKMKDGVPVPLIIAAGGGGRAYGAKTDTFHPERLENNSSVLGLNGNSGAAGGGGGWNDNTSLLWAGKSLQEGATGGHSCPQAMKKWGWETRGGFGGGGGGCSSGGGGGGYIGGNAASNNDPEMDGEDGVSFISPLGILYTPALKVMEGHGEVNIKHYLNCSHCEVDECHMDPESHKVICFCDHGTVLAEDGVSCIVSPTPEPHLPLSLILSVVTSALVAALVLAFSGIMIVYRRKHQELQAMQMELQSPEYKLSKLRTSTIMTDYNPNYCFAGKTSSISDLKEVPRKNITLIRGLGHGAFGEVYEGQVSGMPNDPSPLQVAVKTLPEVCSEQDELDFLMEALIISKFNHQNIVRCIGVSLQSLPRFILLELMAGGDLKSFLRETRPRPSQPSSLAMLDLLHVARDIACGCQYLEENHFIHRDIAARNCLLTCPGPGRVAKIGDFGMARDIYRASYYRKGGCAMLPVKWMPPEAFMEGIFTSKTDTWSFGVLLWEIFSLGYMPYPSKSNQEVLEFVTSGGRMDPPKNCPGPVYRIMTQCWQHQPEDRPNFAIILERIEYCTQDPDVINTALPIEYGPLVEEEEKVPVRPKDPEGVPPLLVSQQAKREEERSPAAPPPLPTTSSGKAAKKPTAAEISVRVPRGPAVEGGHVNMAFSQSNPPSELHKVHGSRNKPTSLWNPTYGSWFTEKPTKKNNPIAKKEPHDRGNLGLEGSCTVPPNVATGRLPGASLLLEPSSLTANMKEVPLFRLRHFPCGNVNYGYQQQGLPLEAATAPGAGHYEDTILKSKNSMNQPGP

Compound | IC50 (ALK) [nM] | IC50 (JAK2) [nM]
COc1ccccc1-c1ccc2cnc(Nc3ccc(N4CCN(C)CC4)nc3)nn12 [Example 1108, [7-(2-Methoxy-phenyl)-pyrrolo[2,1-f][1,2,4]triazin-2-yl]-[6-(4-methyl-piperazin-1-yl)-pyridin-3-yl]-amine] | 100 to 1000 | < 100
COc1ccc(-c2ccc3cnc(Nc4ccc(N5CCN(C)CC5)nc4)nn23)cn1 [Example 1109, [7-(6-Methoxy-pyridin-3-yl)-pyrrolo[2,1-f][1,2,4]triazin-2-yl]-[6-(4-methyl-piperazin-1-yl)-pyridin-3-yl]-amine] | 100 to 1000 | < 100
CN1CCN(c2ccc(Nc3ncc4ccc(-c5ccc(S(C)(=O)=O)cc5)n4n3)cn2)CC1 [Example 1110, [7-(4-Methanesulfonyl-phenyl)-pyrrolo[2,1-f][1,2,4]triazin-2-yl]-[6-(4-methyl-piperazin-1-yl)-pyridin-3-yl]-amine] | 100 to 1000 | < 100
COc1ccccc1-c1ccc2cnc(Nc3ccn(CC(=O)N4CCOCC4)n3)nn12 [Example 1111, 2-{3-[7-(2-Methoxy-phenyl)-pyrrolo[2,1-f][1,2,4]triazin-2-ylamino]-pyrazol-1-yl}-1-morpholin-4-yl-ethanone] | 100 to 1000 | < 100
COc1ccc(-c2ccc3cnc(Nc4ccn(CC(=O)N5CCOCC5)n4)nn23)cn1 [Example 1112, 2-{3-[7-(6-Methoxy-pyridin-3-yl)-pyrrolo[2,1-f][1,2,4]triazin-2-ylamino]-pyrazol-1-yl}-1-morpholin-4-yl-ethanone] | > 10000 | < 100
COc1ccccc1-c1ccc2cnc(Nc3cn(CC(=O)N4CCOCC4)cn3)nn12 [Example 1113, 2-{4-[7-(2-Methoxy-phenyl)-pyrrolo[2,1-f][1,2,4]triazin-2-ylamino]-imidazol-1-yl}-1-morpholin-4-yl-ethanone] | 1000 to 10000 | < 100
COc1ccccc1-c1ccc2cnc(Nc3ccn(CC(=O)N4CCN(C)CC4)n3)nn12 [Example 1114, 2-{3-[7-(2-Methoxy-phenyl)-pyrrolo[2,1-f][1,2,4]triazin-2-ylamino]-pyrazol-1-yl}-1-(4-methyl-piperazin-1-yl)-ethanone] | 100 to 1000 | < 100
COc1ccc(-c2ccc3cnc(Nc4ccn(CC(=O)N5CCN(C)CC5)n4)nn23)cn1 [Example 1115, 2-{3-[7-(6-Methoxy-pyridin-3-yl)-pyrrolo[2,1-f][1,2,4]triazin-2-ylamino]-pyrazol-1-yl}-1-(4-methyl-piperazin-1-yl)-ethanone] | 1000 to 10000 | < 100
c1cc(Sc2ccc3cnc(Nc4ccc(N5CCOCC5)cc4)nn23)ccn1 [Example 1116, (4-Morpholin-4-yl-phenyl)-[7-(pyridin-4-ylsulfanyl)-pyrrolo[2,1-f][1,2,4]triazin-2-yl]-amine] | 1000 to 10000 | < 100
CN1CCN(c2ccc(Nc3ncc4ccc(Sc5ccncc5)n4n3)cc2)CC1 [Example 1117, [4-(4-Methyl-piperazin-1-yl)-phenyl]-[7-(pyridin-4-ylsulfanyl)-pyrrolo[2,1-f][1,2,4]triazin-2-yl]-amine] | 1000 to 10000 | < 100
CN1CCN(c2ccc(Nc3ncc4ccc(-c5ccc(N)nc5)n4n3)cc2)CC1 [Example 1118, [7-(6-Amino-pyridin-3-yl)-pyrrolo[2,1-f][1,2,4]triazin-2-yl]-[4-(4-methyl-piperazin-1-yl)-phenyl]-amine] | 100 to 1000 | < 100
CN1CCC(c2ccc(Nc3ncc4ccc(-c5ccc(S(C)(=O)=O)cc5)n4n3)cc2)CC1 [Example 1119, [7-(4-Methanesulfonyl-phenyl)-pyrrolo[2,1-f][1,2,4]triazin-2-yl]-[4-(1-methyl-piperidin-4-yl)-phenyl]-amine] | < 100 | < 100
CN1CCC(c2ccc(Nc3ncc4ccc(-c5cccc(S(C)(=O)=O)c5)n4n3)cc2)CC1 [Example 1120, [7-(3-Methanesulfonyl-phenyl)-pyrrolo[2,1-f][1,2,4]triazin-2-yl]-[4-(1-methyl-piperidin-4-yl)-phenyl]-amine] | 100 to 1000 | < 100
COc1ccc(Cl)cc1-c1ccc2cnc(Nc3ccc(C4CCN(C)CC4)cc3)nn12 [Example 1121, [7-(5-Chloro-2-methoxy-phenyl)-pyrrolo[2,1-f][1,2,4]triazin-2-yl]-[4-(1-methyl-piperidin-4-yl)-phenyl]-amine] | < 100 | < 100
CN1CCN(c2ccc(Nc3ncc4ccc(-c5cccc(NS(C)(=O)=O)c5)n4n3)cn2)CC1 [Example 1122, N-(3-{2-[6-(4-Methyl-piperazin-1-yl)-pyridin-3-ylamino]-pyrrolo[2,1-f][1,2,4]triazin-7-yl}-phenyl)-methanesulfonamide] | 100 to 1000 | < 100
CN1CCN(c2ccc(Nc3ncc4ccc(-c5cccc(S(C)(=O)=O)c5)n4n3)cn2)CC1 [Example 1123, [7-(3-Methanesulfonyl-phenyl)-pyrrolo[2,1-f][1,2,4]triazin-2-yl]-[6-(4-methyl-piperazin-1-yl)-pyridin-3-yl]-amine] | 100 to 1000 | < 100
CN1CCN(Cc2cccc(Nc3ncc4ccc(-c5cccc(S(C)(=O)=O)c5)n4n3)n2)CC1 [Example 1124, [7-(3-Methanesulfonyl-phenyl)-pyrrolo[2,1-f][1,2,4]triazin-2-yl]-[6-(4-methyl-piperazin-1-ylmethyl)-pyridin-2-yl]-amine] | > 10000 | > 10000
COc1ccccc1-c1ccc2cnc(Nc3ccc(C4CCN(C[C@H](O)CO)CC4)cc3)nn12 [Example 1125, (S)-3-(4-{4-[7-(2-Methoxy-phenyl)-pyrrolo[2,1-f][1,2,4]triazin-2-ylamino]-phenyl}-piperidin-1-yl)-propane-1,2-diol] | < 100 | < 100
CN1CCN(c2ccc(Nc3ncc4ccc(-c5cccc(S(=O)(=O)NC(C)(C)C)c5)n4n3)cn2)CC1 [Example 1127, N-tert-Butyl-3-{2-[6-(4-methyl-piperazin-1-yl)-pyridin-3-ylamino]-pyrrolo[2,1-f][1,2,4]triazin-7-yl}-benzenesulfonamide] | 100 to 1000 | < 100
CS(=O)(=O)N1CC=C(c2ccc3cnc(Nc4ccc(N5CCOCC5)cc4)nn23)CC1 [Example 1129, [7-(1-Methanesulfonyl-1,2,3,6-tetrahydro-pyridin-4-yl)-pyrrolo[2,1-f][1,2,4]triazin-2-yl]-(4-morpholin-4-yl-phenyl)-amine] | 1000 to 10000 | < 100
OC[C@@H](O)CN1CCC(c2ccc(Nc3ncc4ccc(-c5cccc(Cl)c5)n4n3)cc2)CC1 [Example 1130, (S)-3-(4-{4-[7-(3-Chloro-phenyl)-pyrrolo[2,1-f][1,2,4]triazin-2-ylamino]-phenyl}-piperidin-1-yl)-propane-1,2-diol] | < 100 | < 100
CN1CCC(c2ccc(Nc3ncc4ccc(-c5cccc(Cl)c5)n4n3)cc2)CC1 [Example 1131, [7-(3-Chloro-phenyl)-pyrrolo[2,1-f][1,2,4]triazin-2-yl]-[4-(1-methyl-piperidin-4-yl)-phenyl]-amine] | < 100 | < 100
COc1ccccc1-c1ccc2cnc(Nc3ccc(C4CCN(C)CC4)cc3)nn12 [Example 1132, [7-(2-Methoxy-phenyl)-pyrrolo[2,1-f][1,2,4]triazin-2-yl]-[4-(1-methyl-piperidin-4-yl)-phenyl]-amine] | < 100 | < 100

— US8471005B2 (Cephalon, Inc., priority 2008, dated 2013)
